Columns and labels:
Type in all cases: cell-based, human
[1] = system: EGFR; test: EGFR phosphorylation in PANC-1 cells, Western blot kinetic study; conditions: 10 nM agonist(s), pEGFR over total EGFR
Protocol: To prepare protein extracts, cells were pelleted by centrifugation and washed twice in PBS. The pellet was resuspended in lysis buffer (50 mM Tris, pH 8.0, 150 mM sodium chloride, 1% NP-40, supplemented Protease and Phosphatase Inhibitor Mini Tablets, Pierce) and incubated on a rotator for 30 min at 4° C. Subsequently, the cells were pelleted by centrifugation at 10,000 rpm for 20 min at 4° C. The protein lysate (supernatant) was used immediately or stored at −80° C. Membrane proteins were isolated using the Mem-Per Plus Membrane protein isolation kit (Thermo Scientific) per the manufacturer′ instructions. Briefly, adherent cells were scraped and centrifuged for 5 min at 300×g. The cell pellet was washed 2 times using Cell Wash solution and centrifuged for 5 min at 300×g. The cell pellet was permeabilized using Permeabilization Buffer and incubated at 4° C. for 10 mins on a rotator. […] Proteins were detected with Pierce ECL detection reagents (Pierce). […]
Cells were treated with 10 nM Dermorphin [Y(D-ALA)FGYPKC; Genscript], 10 nM (1R,1′S,3′R/1R,1′R,3′S)-L-054,264 (Tocris) individually and in combination for the indicated times. […] Blots were imaged on film and quantified using the Image Lab software (Biorad). ERK1/2 and EGFR phosphorylation at each time point was quantified and normalized by calculating the ratio of pERK1/2 over total ERK1/2 and pEGFR over total EGFR in each lane. […]

[2] = system: pERK1/2; test: pERK1/2 localization in PANC-1 cells, confocal imaging; conditions: 3 or 30 min, 10 nM dermorphin, 10 nM L-054,264, 100 ng/ml CXCL12
Protocol: For pERK1/2 activation studies, after 24 hours, normal pancreatic and/or PANC-1 cells were treated with 1) 10 nM dermorphin; 2) 10 nM L-054,264; 3) 10 nM dermorphin plus 10 nM L-054,264; 4) 100 ng/ml CXCL12; and 5) 10 nM dermorphin plus 100 ng/ml CXCL12 for either 3 min or 30 min as indicated. PANC-1 NS, PANC-1/β arreatin2, PANC-1/SSTR2si and PANC-1/MORsi cells were treated with 10 nM dermorphin with 10 nM L-054,264 for 3 min. Following treatment, cells were washed and fixed with 4% (w/v) paraformaldehyde and 0.2% (w/v) glutaraldehyde for 30 min and inactivated with 25 mM glycine for 10 min. Cells were then washed in PBS and subsequently permeabilized on ice using 0.5% tween-20 in PBS for 20 min similarly as before (Smith et al., 2004). Cells were washed with PBS and blocked with 5% BSA in PBS for 10 min. Cells were incubated for 1 h at 37° C. with 2 μg/mL of primary antibody (anti-pERK1/2). Subsequently, cells were washed 3 times with 0.5% tween-20 in PBS for 5 min each and incubated with 2 μg/mL of Alexa Fluor 647 labeled secondary antibody in PB for 45 min. Following incubation with secondary antibody, cells were washed 3 times with 0.5% tween-20 in PBS. Cells were covered with mounting media DAPI (Vector Labs), mounted on slides, and imaged on a Zeiss LSM700 confocal microscope.

[3] = system: N-cadherin, MMP-9, vimentin and E-cadherin; test: EMT marker mRNA levels in PANC-1 cells, RT-PCR; conditions: 10 nM dermorphin, 100 ng/mL CXCL12
Protocol: RNA was isolated using the RNAeasy Plus Kit (Qiagen) according to the manufacturer's protocol. For the EMT markers assay, cells were first treated with appropriate agonists where indicated for 24 hours followed by cell lysis and RNA extraction. cDNA was synthesized from 2 μg RNA using Bioline cDNA synthesis kit according to the manufacturer's protocol. The synthesized cDNAs were used as templates for PCRs with primers as described below. RT-PCR was performed using 5×RT Mastermix (Applied Biosystems). The reactions were analyzed on the CFX96 Real time instrument (Biorad). Themocycler conditions were 95° C. for 10 min for 1 cycle, 95° C. for 15 sec and 60° C. for 1 min for 50 cycles. GAPDH was used as an internal control. For GPCR assays, COS-7 cells were used as negative and MCF-7 cells as positive controls. For EMT marker assays, fold change was calculated as a ratio of treated to untreated control.

Substance	EGFR phosphorylation [1]	pERK1/2 localization [2]	mRNA levels of 4 markers (N-cadherin, E-cadherin, MMP-9, vimentin) [3]
(1R,1′S,3′R/1R,1′R,3′S)-L-054,264	induced modest EGFR phosphorylation	–	–
CXCL12: selective CXCR4 agonist	–	high levels of nuclear pERK1/2	did not have a significant effect
